How the values were obtained:
Conditions in all cases: Compound concentration 1000.0 nM
[1] = system: Proto-oncogene tyrosine-protein kinase receptor Ret (Homo sapiens), P07949 [V804M]
[2] = target: Serine/threonine-protein kinase/endoribonuclease IRE1 (Homo sapiens) (UniProt O75460)
[3] = target: Calcium/calmodulin-dependent protein kinase kinase 2 (Homo sapiens) (UniProt Q96RR4)
[4] = target: Dual specificity mitogen-activated protein kinase kinase 1 (Homo sapiens) (UniProt Q02750)
[5] = target: Serine/threonine-protein kinase BRSK1 (Homo sapiens) (UniProt Q8TDC3)
[6] = system: Fibroblast growth factor receptor 3 (Homo sapiens), P22607 [G697C]
[7] = target: Phosphatidylinositol 3-kinase C2 domain-containing subunit gamma (Homo sapiens) (UniProt O75747)
[8] = target: Serine/threonine-protein kinase TBK1 (Homo sapiens) (UniProt Q9UHD2)
[9] = target: Serine/threonine-protein kinase TAO3 (Homo sapiens) (UniProt Q9H2K8)
[10] = target: Casein kinase I isoform alpha-like (Homo sapiens) (UniProt Q8N752)
[11] = target: Mitogen-activated protein kinase kinase kinase 4 (Homo sapiens) (UniProt Q9Y6R4)
[12] = target: Serine/threonine-protein kinase WNK3 (Homo sapiens) (UniProt Q9BYP7)
[13] = target: Activated CDC42 kinase 1 (Homo sapiens) (UniProt Q07912)
[14] = target: Rho-associated protein kinase 2 (Homo sapiens) (UniProt O75116)
[15] = target: Serine/threonine-protein kinase PknB (Mycobacterium tuberculosis) (UniProt P9WI81)
[16] = target: Serine/threonine-protein kinase MAK (Homo sapiens) (UniProt P20794)
[17] = target: Serine/threonine-protein kinase PLK4 (Homo sapiens) (UniProt O00444)
[18] = target: Mitogen-activated protein kinase 9 (Homo sapiens) (UniProt P45984)
[19] = target: NT-3 growth factor receptor (Homo sapiens) (UniProt Q16288)
[20] = target: Aurora kinase C (Homo sapiens) (UniProt Q9UQB9)
[21] = system: ALK tyrosine kinase receptor (Homo sapiens), Q9UM73 [C1156Y]
[22] = target: Platelet-derived growth factor receptor beta (Homo sapiens) (UniProt P09619)
[23] = target: TRAF2 and NCK-interacting protein kinase (Homo sapiens) (UniProt Q9UKE5)
[24] = target: Macrophage colony-stimulating factor 1 receptor (Homo sapiens) (UniProt P07333)
[25] = target: Proto-oncogene tyrosine-protein kinase Src (Homo sapiens) (UniProt P12931)
[26] = target: Tyrosine-protein kinase JAK1 (Homo sapiens) (UniProt P23458)
[27] = target: Serine/threonine-protein kinase 32C (Homo sapiens) (UniProt Q86UX6)
[28] = target: Interferon-induced, double-stranded RNA-activated protein kinase (Homo sapiens) (UniProt P19525)
[29] = target: Receptor tyrosine-protein kinase erbB-3 (Homo sapiens) (UniProt P21860)
[30] = target: Phosphatidylinositol 3-kinase catalytic subunit type 3 (Homo sapiens) (UniProt Q8NEB9)
[31] = target: Ribosomal protein S6 kinase alpha-6 (Homo sapiens) (UniProt Q9UK32)
[32] = system: Receptor-type tyrosine-protein kinase FLT3 (Homo sapiens), P36888 [D835Y]
[33] = target: Casein kinase I isoform gamma-1 (Homo sapiens) (UniProt Q9HCP0)
[34] = target: Phosphatidylinositol 4-kinase beta (Homo sapiens) (UniProt Q9UBF8)
[35] = target: Dual specificity protein kinase CLK1 (Homo sapiens) (UniProt P49759)
[36] = target: Ribosomal protein S6 kinase alpha-3 (Homo sapiens) (UniProt P51812)
[37] = target: Protein-tyrosine kinase 6 (Homo sapiens) (UniProt Q13882)
[38] = target: BMP-2-inducible protein kinase (Homo sapiens) (UniProt Q9NSY1)
[39] = target: Phosphatidylinositol 5-phosphate 4-kinase type-2 gamma (Homo sapiens) (UniProt Q8TBX8)
[40] = target: Serine/threonine-protein kinase VRK2 (Homo sapiens) (UniProt Q86Y07)
[41] = target: Calcium/calmodulin-dependent protein kinase type 1B (Homo sapiens) (UniProt Q6P2M8)
[42] = target: Ephrin type-B receptor 3 (Homo sapiens) (UniProt P54753)
[43] = target: Activin receptor type-2A (Homo sapiens) (UniProt P27037)
[44] = target: Transient receptor potential cation channel subfamily M member 6 (Homo sapiens) (UniProt Q9BX84)
[45] = target: cGMP-dependent protein kinase 1 (Homo sapiens) (UniProt Q13976)

Measured: residual activity

Mitogen-activated protein kinase 9 (Homo sapiens), sequence (P45984 whole entry, looked up): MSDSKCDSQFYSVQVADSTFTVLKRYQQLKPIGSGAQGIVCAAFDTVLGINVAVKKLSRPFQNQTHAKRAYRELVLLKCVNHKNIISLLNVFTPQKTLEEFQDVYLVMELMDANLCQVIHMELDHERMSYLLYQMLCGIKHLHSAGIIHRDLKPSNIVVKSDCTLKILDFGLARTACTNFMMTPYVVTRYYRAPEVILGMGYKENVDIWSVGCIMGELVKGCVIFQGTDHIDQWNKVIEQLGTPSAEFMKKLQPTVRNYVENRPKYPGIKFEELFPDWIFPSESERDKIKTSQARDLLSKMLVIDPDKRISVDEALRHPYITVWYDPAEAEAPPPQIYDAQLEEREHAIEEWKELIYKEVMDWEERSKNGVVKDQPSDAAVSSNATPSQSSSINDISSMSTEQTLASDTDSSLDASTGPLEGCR
Serine/threonine-protein kinase TBK1 (Homo sapiens), sequence (Q9UHD2 whole entry): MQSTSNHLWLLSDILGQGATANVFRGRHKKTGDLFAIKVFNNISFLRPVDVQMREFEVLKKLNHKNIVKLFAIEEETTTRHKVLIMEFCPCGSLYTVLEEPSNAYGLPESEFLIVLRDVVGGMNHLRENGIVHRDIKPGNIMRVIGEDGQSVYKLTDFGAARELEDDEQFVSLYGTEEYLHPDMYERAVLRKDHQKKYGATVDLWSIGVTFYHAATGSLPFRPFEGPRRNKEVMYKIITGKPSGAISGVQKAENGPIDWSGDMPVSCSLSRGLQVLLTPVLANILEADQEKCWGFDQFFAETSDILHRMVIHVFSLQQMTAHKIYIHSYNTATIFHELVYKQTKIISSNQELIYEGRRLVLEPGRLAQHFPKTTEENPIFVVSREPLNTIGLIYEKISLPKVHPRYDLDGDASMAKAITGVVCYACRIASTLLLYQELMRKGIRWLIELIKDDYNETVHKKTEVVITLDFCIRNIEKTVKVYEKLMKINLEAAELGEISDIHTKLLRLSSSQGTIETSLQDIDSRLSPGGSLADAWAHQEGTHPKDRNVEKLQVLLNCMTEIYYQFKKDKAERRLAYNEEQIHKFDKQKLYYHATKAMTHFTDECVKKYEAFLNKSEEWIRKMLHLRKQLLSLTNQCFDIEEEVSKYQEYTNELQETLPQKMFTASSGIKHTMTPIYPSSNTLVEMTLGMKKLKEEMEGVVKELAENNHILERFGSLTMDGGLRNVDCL
Ephrin type-B receptor 3 (Homo sapiens), sequence (P54753 whole entry): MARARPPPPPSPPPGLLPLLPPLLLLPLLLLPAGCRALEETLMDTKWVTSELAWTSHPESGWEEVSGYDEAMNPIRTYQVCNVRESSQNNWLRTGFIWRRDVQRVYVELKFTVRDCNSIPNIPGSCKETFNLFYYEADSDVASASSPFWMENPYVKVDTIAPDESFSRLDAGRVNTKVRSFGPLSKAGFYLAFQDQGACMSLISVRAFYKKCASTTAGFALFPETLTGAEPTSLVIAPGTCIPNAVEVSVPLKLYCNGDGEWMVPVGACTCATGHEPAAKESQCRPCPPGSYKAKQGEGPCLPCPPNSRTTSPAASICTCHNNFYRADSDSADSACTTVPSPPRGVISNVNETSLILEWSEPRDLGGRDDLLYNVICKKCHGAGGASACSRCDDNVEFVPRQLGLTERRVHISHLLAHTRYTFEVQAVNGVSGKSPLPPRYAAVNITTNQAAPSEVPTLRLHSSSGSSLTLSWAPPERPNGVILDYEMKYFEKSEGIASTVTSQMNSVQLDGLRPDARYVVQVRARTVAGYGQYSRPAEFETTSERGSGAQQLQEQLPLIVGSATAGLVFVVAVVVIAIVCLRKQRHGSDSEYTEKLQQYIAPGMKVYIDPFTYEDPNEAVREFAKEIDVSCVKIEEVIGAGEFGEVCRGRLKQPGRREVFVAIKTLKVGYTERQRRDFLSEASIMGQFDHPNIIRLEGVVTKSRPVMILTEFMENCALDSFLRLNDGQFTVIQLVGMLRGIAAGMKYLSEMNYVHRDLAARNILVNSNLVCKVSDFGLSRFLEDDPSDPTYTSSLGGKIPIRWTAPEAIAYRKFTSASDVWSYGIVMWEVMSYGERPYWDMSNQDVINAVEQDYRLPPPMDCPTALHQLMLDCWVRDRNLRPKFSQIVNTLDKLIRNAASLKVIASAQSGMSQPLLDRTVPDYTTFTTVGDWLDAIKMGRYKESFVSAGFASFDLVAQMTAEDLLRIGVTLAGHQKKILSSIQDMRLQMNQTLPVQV
Tyrosine-protein kinase JAK1 (Homo sapiens), sequence (P23458 whole entry): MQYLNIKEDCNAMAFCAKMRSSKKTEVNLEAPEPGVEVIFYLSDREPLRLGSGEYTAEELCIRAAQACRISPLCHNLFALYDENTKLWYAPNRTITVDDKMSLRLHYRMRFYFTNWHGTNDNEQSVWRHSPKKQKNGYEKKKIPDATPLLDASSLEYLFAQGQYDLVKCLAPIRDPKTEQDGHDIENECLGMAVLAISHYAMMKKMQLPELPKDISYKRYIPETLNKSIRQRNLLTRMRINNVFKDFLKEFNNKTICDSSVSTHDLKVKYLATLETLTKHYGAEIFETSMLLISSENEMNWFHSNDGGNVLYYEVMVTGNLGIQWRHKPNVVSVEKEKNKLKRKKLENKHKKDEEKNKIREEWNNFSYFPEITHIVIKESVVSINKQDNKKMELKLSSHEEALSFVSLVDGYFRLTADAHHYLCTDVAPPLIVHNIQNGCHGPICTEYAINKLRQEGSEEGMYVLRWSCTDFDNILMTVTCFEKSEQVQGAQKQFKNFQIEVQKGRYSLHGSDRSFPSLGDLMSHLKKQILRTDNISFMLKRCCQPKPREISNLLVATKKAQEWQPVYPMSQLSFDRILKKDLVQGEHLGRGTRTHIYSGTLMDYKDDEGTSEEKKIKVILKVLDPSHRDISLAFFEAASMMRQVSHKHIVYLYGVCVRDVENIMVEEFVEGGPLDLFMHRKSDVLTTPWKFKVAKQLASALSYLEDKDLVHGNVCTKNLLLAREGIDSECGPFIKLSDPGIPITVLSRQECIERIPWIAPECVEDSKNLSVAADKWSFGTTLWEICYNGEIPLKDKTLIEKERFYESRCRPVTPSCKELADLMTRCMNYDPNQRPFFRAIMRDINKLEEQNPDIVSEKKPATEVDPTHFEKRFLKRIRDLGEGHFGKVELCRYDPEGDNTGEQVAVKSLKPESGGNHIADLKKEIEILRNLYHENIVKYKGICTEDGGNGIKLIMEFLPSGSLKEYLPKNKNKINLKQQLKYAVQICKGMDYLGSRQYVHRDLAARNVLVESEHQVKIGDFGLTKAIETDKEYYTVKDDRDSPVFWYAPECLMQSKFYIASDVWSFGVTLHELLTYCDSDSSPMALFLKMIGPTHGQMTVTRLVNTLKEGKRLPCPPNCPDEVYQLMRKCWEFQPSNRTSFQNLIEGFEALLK
Interferon-induced, double-stranded RNA-activated protein kinase (Homo sapiens), sequence (P19525 whole entry): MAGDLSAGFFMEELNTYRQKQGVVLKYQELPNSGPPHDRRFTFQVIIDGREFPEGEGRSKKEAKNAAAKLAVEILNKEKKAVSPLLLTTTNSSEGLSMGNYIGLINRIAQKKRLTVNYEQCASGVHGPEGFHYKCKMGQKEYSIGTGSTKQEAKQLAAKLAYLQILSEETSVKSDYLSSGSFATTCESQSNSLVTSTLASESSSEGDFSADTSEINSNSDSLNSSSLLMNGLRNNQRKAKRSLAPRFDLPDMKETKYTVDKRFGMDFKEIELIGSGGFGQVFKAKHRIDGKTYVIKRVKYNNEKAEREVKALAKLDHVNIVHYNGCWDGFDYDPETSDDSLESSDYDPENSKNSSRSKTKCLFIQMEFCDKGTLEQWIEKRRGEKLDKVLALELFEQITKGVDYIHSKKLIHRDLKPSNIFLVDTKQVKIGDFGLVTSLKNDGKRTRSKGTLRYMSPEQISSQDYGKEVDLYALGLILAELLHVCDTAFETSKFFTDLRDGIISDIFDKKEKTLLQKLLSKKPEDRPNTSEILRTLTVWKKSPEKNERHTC
Dual specificity mitogen-activated protein kinase kinase 1 (Homo sapiens), sequence (Q02750 whole entry): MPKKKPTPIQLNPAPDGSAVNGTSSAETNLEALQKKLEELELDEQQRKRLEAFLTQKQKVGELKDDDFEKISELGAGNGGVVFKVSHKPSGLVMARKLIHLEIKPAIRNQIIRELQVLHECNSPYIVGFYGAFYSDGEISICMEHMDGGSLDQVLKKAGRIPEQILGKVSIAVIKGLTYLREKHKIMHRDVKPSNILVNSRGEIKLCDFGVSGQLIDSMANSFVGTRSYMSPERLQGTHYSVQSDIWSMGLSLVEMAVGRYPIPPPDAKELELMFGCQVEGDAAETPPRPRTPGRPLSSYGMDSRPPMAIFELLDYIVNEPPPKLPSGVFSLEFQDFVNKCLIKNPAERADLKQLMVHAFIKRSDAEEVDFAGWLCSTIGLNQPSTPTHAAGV
Casein kinase I isoform gamma-1 (Homo sapiens), sequence (Q9HCP0 whole entry, looked up, canonical isoform): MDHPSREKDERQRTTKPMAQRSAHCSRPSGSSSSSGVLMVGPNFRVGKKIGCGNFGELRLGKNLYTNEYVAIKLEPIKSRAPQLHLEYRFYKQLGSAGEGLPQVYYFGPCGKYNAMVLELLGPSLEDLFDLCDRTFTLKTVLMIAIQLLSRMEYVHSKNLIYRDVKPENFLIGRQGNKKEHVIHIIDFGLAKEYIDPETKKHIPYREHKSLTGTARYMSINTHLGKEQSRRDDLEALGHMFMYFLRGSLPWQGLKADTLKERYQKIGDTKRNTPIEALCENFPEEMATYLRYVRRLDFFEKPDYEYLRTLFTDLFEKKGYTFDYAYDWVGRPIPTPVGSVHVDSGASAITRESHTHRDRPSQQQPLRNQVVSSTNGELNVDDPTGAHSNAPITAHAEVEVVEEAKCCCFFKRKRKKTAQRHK
Casein kinase I isoform alpha-like (Homo sapiens), sequence (Q8N752 whole entry, canonical isoform): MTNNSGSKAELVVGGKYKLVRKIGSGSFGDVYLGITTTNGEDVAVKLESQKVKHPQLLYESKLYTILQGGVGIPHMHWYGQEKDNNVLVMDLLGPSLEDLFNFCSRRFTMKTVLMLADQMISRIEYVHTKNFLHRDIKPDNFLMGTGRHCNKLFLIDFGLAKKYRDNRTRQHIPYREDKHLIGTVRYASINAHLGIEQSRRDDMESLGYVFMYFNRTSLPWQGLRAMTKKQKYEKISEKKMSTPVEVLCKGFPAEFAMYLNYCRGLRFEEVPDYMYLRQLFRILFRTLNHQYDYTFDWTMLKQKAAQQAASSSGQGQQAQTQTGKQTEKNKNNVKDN

CN(C)CC#Cc1ccc(OCCCc2sc(N3CCc4cccc(C(=O)Nc5nc6ccccc6s5)c4C3)nc2C(=O)O)c(F)c1 [A-1155463]
active: [20] 9%
inactive: [1] 98% | [2] 84% | [3] 100% | [4] 100% | [5] 100% | [6] 88% | [7] 100% | [8] 100% | [9] 100% | [10] 100% | [11] 100% | [12] 100% | [13] 100% | [14] 100% | [15] 100% | [16] 100% | [17] 77% | [18] 76% | [19] 100% | [21] 100% | [22] 94% | [23] 83% | [24] 100% | [25] 100% | [26] 97% | [27] 75% | [28] 100% | [29] 100% | [30] 100% | [31] 97% | [32] 83% | [33] 91% | [34] 100% | [35] 88% | [36] 97% | [37] 96% | [38] 97% | [39] 100% | [40] 100% | [41] 100% | [42] 100% | [43] 94% | [44] 84% | [45] 100%

Reference: ChEMBL document CHEMBL4507311, “Data for DCP probe A-1155463” (2021)
